# “Also recorded” adds a separate entry of the source.
# Key:
# T-cell = T-cell proliferation (3H thymidine incorporation) of lymph node lymphocytes from mice immunized with MUC1-based liposomal vaccine adjuvanted with Lipid-A analog; format: in vivo, C57-Black mice; conditions: for T-cell-Proliferation (CPM): Table 3, third test group, s.c. liposomal vaccine 40 μg BP1-148 + 20 μg Lipid-A analog per dose, nine days after injection, boosting antigen BP1-151; for T-cell blastogenesis: in words, liposomal vaccine formulations in mice, FIG. 31-FIG. 33
# Experimental: (§1) Typically, the liposomal formulation was composed of 400 μg of MUC1-based lipopeptide BP1-148, H2N-[…](Pal)G-OH, 200 μg of Lipid-A analog, 6.94 mg of cholesterol, 1.46 mg of dimyristoyl phosphatidylglycerol ([…]) and 11.62 mg of dipalmitoyl phosphatidylcholine (DPPC) per 1 ml of saline (0.9% NaCl solution).
# (§2) The liposomal constructs were formulated by first dissolving the phospholipids, cholesterol and Lipid A analog in tert-butanol at about 53° C. Lipopeptide and water (5%, v/v) were then added to the tert-butanol solution. The resulting clear 95% tert-butanol solution was injected into about 4 volumes of rapidly stirred water at about 50° C., using a glass syringe with an 18-gauge needle. The small unilamellar vesicles (SUV) formed in this process were cooled, sterilized by filtration through a 0.22 μm membrane filter, filled into vials and lyophilized. The dry powder was re-hydrated with sterile saline before injection, resulting in the formation of multilamellar large vesicles (MLV). The liposomes formed are used to immunize mice.
# (§3) Groups of C57-Black mice were immunized subcutaneously with the liposomal vaccine containing 40 μg of MUC1-based lipopeptide BP1-148 (FIG. 34), which has the peptide sequence of H2N-[…](Pal) G-OH, and 20 μg of Lipid-A analog per dose. Nine days after vaccine injection mice were sacrificed and lymphocytes were taken from the draining lymph nodes (local response) or from the spleens (systemic response) to determine the immune response in each group. The lymphocytes taken from immunized mice were incubated in in vitro cultures in the presence of MUC1-based boosting antigen BP1-151, which has the peptide sequence H2N-[…]-OH.
# T-cell proliferation was evaluated using a standard ^3H thymidine incorporation assay. Briefly, nylon wool passed inguinal lymph node lymphocytes from each mouse were added to a culture containing 106 native mitomycin C treated syngeneic splenocytes, which serves as antigen presenting cells (APCs). To each well 20 μg of MUC1-based boosting peptide BP1-151, H2N-[…]-OH (single letter amino acid code, Table 8), was added for positive control; and cultures containing no antigen or peptide BP1-72, which has the peptide sequence H2N-[…]-OH, were used as negative control. The culture was incubated for 72 h in a total volume of 250 μl well, followed by adding 1 μCi of ^3H-thymidine in a volume of 50 μl. The plates were incubated for an additional 18-20 h. Cells were harvested and [^3H]dTh incorporation was measured by liquid scintillation counter. T-cell proliferation results corresponding to various liposomal vaccines adjuvanted, with different Lipid-A analogs are summarized in Tables 1-Table 3 and FIG. 31-FIG. 33.
# Interferon-gamma (IFN-γ) = Interferon-gamma (IFN-γ) production in cell culture supernatants by ELISA, lymphocytes of mice immunized with adjuvanted MUC1 liposomal vaccine; format: in vivo, C57-Black mice; conditions: for Interferon-gamma (IFN-γ, pg/ml): Table 3, third test group, s.c. liposomal vaccine 40 μg BP1-148 + 20 μg Lipid-A analog per dose, nine days after injection; for interferon-gamma production: in words, liposomal vaccine formulations in mice, FIG. 31-FIG. 33
# Experimental: as §1, §2, §3
# Interferon-gamma (IFN-γ) levels were determined in the cell culture supernatants using enzyme-linked immunoabsorbent assay (ELISA). 96-Well plates were coated with 50 μl of catcher Mabs in 50 μl of R4.6AZ at 37° C. for 30 min. The plates were then washed and incubated with test samples for 45 min. After two washes the second biotinylated antibody, XMG1.2 was added. After washing, peroxidase-conjugated streptavidin was added and incubated again for 30 min. Finally, 100 μl of horseradish peroxidase (HRPO) substrate solution was added. The optical density was measured with a Thermomax ELISA reader at 405 nm wavelength in kinetic mode for 10 min. The interferon-gamma (IFN-γ) levels corresponding to various Lipid-A analogs are shown in Table 1-Table 3 and FIG. 31-FIG. 33.
# [1] = test system: immune response to MUC1-based lipopeptide BP1-148; experiment: Adjuvanticity of Lipid-A analogs in liposomal vaccine with MUC1 lipopeptide BP1-148 (T-cell blastogenesis and IFN-γ production); format: in vivo, mice; conditions: in words; liposomal formulations with BP1-148 in mice, FIGS. 31-33
# Source text: Liposome formulations have been used to evaluate the adjuvant properties of various synthetic Lipid-A structures and the immune responses to a synthetic lipopeptide antigen BP-148, H2N-[…](Pal)G-OH (FIG. 34), a modified 25-amino-acid sequence derived from tumor-associated MUC1 mucin. The commercially available Lipid-A product, which is currently under clinical evaluation as an adjuvant for vaccine programs, was used for comparison. The natural Lipid-A product, purchased from AVANTI, contained a mixture of Lipid-A analogs extracted from Salmonella bacterial cell wall and is designated as Natural Lipid-A in this invention.
# Thus, the liposomal formulations containing the synthetic lipopeptide antigen, BP1-148, and Lipid-A analogs 33, 48, 54, 58, 70, 77, 86, 94, 102, 104 or Natural Lipid-A, were used to immunize mice to measure their immune response in terms of T-cell blastogenesis and interferon-gamma (IFN-γ) production. The compounds were tested in three groups at different time and their preliminary results are shown separately in FIGS. 31-33. As the variations are attributed to different factors such as animal groups and experimental factors, the data from different groups will not be compared.
# as §3
SMILES,T-cell-Proliferation (CPM) (T-cell),T-cell blastogenesis (T-cell),"Interferon-gamma (IFN-γ, pg/ml) (Interferon-gamma (IFN-γ))",interferon-gamma production (Interferon-gamma (IFN-γ)),adjuvant activity compared to Natural Lipid-A (Lipid-A preparation of bacterial origin) [1]
"CCCCCCCCCCCCO[C@H](CCCCCCCCCCC)CC(=O)O[C@H](CCCCCCCCCCC)CC(=O)N[C@H]1C(O)O[C@H](CO[C@@H]2O[C@H](CO)[C@@H](OP(=O)(O)O)[C@H](OC(=O)C[C@@H](CCCCCCCCCCC)OCCCCCCCCCCCC)[C@H]2NC(=O)C[C@H](O)CCCCCCCCCCC)[C@@H](O)[C@@H]1O (stereo partly drawn) [Compound 104, 2-Deoxy-6-O-{2-deoxy-4-O-phosphono-2-[(3R)-3-hydroxytetradecanamido]-3-O-[(3R)-3-dodecyloxytetradecanoyl]-β-D-glucopyranosyl}-2-{(3R)-3-[(3R)-3-dodecyloxytetradecanoyloxy]-tetradecanamido}-α/β-D-glucopyranose]",12635 CPM,significant T-cell blastogenesis,14669 pg/mL,high levels of interferon-gamma,similar; also recorded: as effective
"CCCCCCCCCCCCO[C@H](CCCCCCCCCCC)CC(=O)N[C@H]1[C@H](OC[C@H]2OC(O)[C@H](NC(=O)C[C@@H](CCCCCCCCCCC)OC(=O)C[C@@H](CCCCCCCCCCC)OCCCCCCCCCCCC)[C@@H](O)[C@@H]2O)O[C@H](CO)[C@@H](OP(=O)(O)O)[C@@H]1OC(=O)C[C@@H](CCCCCCCCCCC)OCCCCCCCCCCCC (stereo partly drawn) [Compound 102, 2-Deoxy-6-O-{2-deoxy-4-O-phosphono-2-[(3R)-3-dodecyloxytetradecanamido]-3-O-[(3R)-3-dodecyloxytetradecanoyl]-β-D-glucopyranosyl}-2-{(3R)-3-[(3R)-3-dodecyloxytetradecanoyloxy]-tetradecanamido}-α/β-D-glucopyranose]",13389 CPM,significant T-cell blastogenesis,10587 pg/mL,high levels of interferon-gamma,similar; also recorded: as effective
"CCCCCCCCCCCCO[C@H](CCCCCCCCCCC)CC(=O)N[C@H]1[C@H](OC[C@H]2OC(O)[C@H](NC(=O)C[C@@H](CCCCCCCCCCC)OCCCCCCCCCCCC)[C@@H](OC(=O)C[C@H](O)CCCCCCCCCCC)[C@@H]2O)O[C@H](CO)[C@@H](OP(=O)(O)O)[C@@H]1OC(=O)C[C@@H](CCCCCCCCCCC)OCCCCCCCCCCCC (stereo partly drawn) [Compound 94, 2-Deoxy-6-O-{2-deoxy-4-O-phosphono-2-[(3R)-3-dodecyloxytetradecanamido]-3-O-[(3R)-3-dodecyloxytetradecanoyl]-β-D-glucopyranosyl}-3-O-[(3R)-3-hydroxytetradecanoyl]-2-[(3R)-3-dodecyloxytetradecanamido]-α/β-D-glucopyranose]",10882 CPM,significant T-cell blastogenesis,2150 pg/mL,low,–
